In patent publication US20180318383A1, “PEPTIDE HAVING NEURONAL LOSS PREVENTION AND REGENERATION EFFECTS, AND COMPOSITION CONTAINING SAME” (GEMVAX & KAEL CO., LTD., priority 2015, published 2018):

Columns and labels:
[1] = test system: NSCs; assay: Western blotting and immunostaining of intracellular proteins in NSCs; format: cell-based, rat
Description: For western blotting, the following antibodies were used: Ki67 (1:200 Abcam), P85a (1:1000, Millipore), pAKT (ser 473, 1:500, Cell Signaling Technology), GSK-3b (ser 9, 1:1000. Santa Cruz Biotechnology), HSTF-1 (1:1000, Santa Cruz Biotechnology), anti-B cell lymphoma-2 (1:1000, Cell Signaling Technology), HMGB-1 (1:500, Cell Signaling Technology), Bax (1:1000, Cell Signaling Technology), Cytosolic cytochrome C (1:200, Cell Signaling Technology), Cleaved caspase 3 (Asp175, 1: 1000, Cell Signaling Technology), c-Myc (1: 1000, Cell Signaling Technology), GFP (1: 1000, Cell Signaling Technology), hTERT (1:500, Santa Cruz Biotechnology), and rTERT (1:500, Santa Cruz Biotechnology).
To confirm an intracellular signaling system, western blotting was performed after 48-hour treatment.
To obtain the mitochondria and a cytoplasmic protein, mitochondria/intracellular protein isolation kits were used (Abcam). All blots were observed using an ECL solution, and observed images were analyzed using an analysis program.
Immunostaining was carried out to confirm intracellular expression and locations. For immunostaining, the following antibodies were used: Ki67 (1:100 Abcam), rabbit anti-doublecortin (1 mg/mL; Abcam), rabbit anti-glial fibrillary acidic protein (GFAP) (1:5000; Abcam), rabbit anti-Tuj1 (1 mg/mL; Abcam), mouse anti-GalC (1 mg/mL; Millipore), and rabbit anti-HMGB1 (1:100; Cell Signaling Technology).
Data was observed using an Olympus fluorescence microscope, and suitable fluorescence was used.

[2] = Cell-free ROS production (DHBA level by HPLC); settings: 20 μM Aβ25-35 and PEP1 0, 1, 10, 50 μM
Description: To investigate how Aβ25-30 and PEP1 influenced ROS, a DHBA level was measured and observed by a cell-free method. This method was carried out by observing the DHBA level in a tube containing 20 μM Aβ25-30 and each concentration of PEP1 (0, 1, 10 or 50 μM) through HPLC.

[3] = test system: DCX; assay: DCX expression in 3XTg-AD mice (western blotting, immunostaining); format: in vivo; settings: hippocampus and whole brain; s.c. three times a week for two months; vs control and Donepezil, same amount
Description: To test the efficacy of PEP1 on AD, AD transgenic mice (3XTg-AD) were purchased from Jackson Laboratory. Genetic characteristics of the transgenic mice are as follows: B6; 129-Psen1tm1Mpm Tg(APPSwe, tauP301L)1Lfa/Mmjax. […] One week after mice were confirmed as pregnant, new mice were delivered and weaned for 3 weeks. Two weeks later, mature mice were obtained.
During the preliminary breeding and the entire period of the experiment, a temperature was maintained at 23±2° C. and a relative humidity was maintained at 60±10%, and then the mice were raised under a 12-hour dark/light cycle. Experimental animals were divided into five groups, and each group included 10 animals. The divided experimental groups are as follows. […]
The PEP1, physiological saline, donepezil and scramble peptide were subcutaneously injected at each concentration three times a week for two months from the age of 12 months, and then two months after the injection, cognitive/memory behavior tests (passive avoidance test and Y maze test) were performed to examine a degree of improvement in cognitive function and memory function. After the brain was extracted to separate the hippocampus, the amounts of amyloid beta in the hippocampus and the whole brain, and the amounts of an amyloid beta oligomer and NFT generated by tau hyperphosphorylation were determined by western blotting and immunostaining. […]

## EARPALLTSRLRFIPK (homo sapiens) [PEP1, hTERT-derived peptide consisting of 16 amino acids, telomerase location [611-626]]
[1]; 20 μM Aβ25-35 + PEP1, 48 hours
  apoptosis-associated proteins: Bax, cytoplasmic cytochrome C, cleaved caspase-3: significantly decreased
  ki67 (protein associated with proliferation ability): concentration-dependently increased
  proliferation-associated proteins: P85a PI3K, pAKT (Ser 473), phosphorylated GSK3-3b (Ser 9), HSTF-1, cytoplasmic HMGB-1: recovered
[1]; immunostaining, 20 μM Aβ25-35 + PEP1 co-treatment
  HMGB1 expression in the cytoplasm: concentration-dependently recovered
[2]
  ROS production under a cell-free condition: did not exhibit a significant influence
[3]
  DCX: increased
